The source of these data is patent publication US20220009914A1, “Analogs of Nitrofuran Antibiotics to Combat Resistance” (The Trustees of Indiana University, priority 2020, published 2022).

Like-named read-outs stand apart in the source and are kept apart here.

The test system of data set [1] is nitrofurantoin resistant E. coli. The format is cell-based, Escherichia coli.
For data set [2], the system named is FHs 74 Int small intestine cells. Description: in vitro. Particulars: for CC50: human, 48 h. The protocol:
(§1) Evaluating compound effects on the viability of human colon and small intestine cells. […] Evaluating compound effects on the viability of human colon and small intestine cells. Evaluation of compound cytotoxicities to FHC colon and FHs 74 Int small intestine cells were performed using Alamar Blue-based viability assays. […] FHs 74 Int cells were maintained in Hybri-care medium (ATCC 46-X) supplemented with 30 ng/mL recombinant epidermal growth factor (EGF) and 10% FBS (Midwest Scientific, USDAFBS).

For data set [3], the system named is FHC colon cells. Put plainly: in vitro. Particulars: for CC50: human, 48 h. The protocol:
as §1

Data set [4] deals with nifuroxazide resistant E. coli. The format is cell-based, Escherichia coli.
The subject of data set [5] is NEB 5-alpha E. coli. Description: microbe, parasite or virus in culture. The data set is classed as cell-based, Escherichia coli. Particulars: for resistance of the maximally-resistant strain to its inhibitor after passaging without compound: 4×12 h serial passages without test compounds, then 24 h proliferation assay; for EC50: Escherichia coli, read-out: EC50 plateau after intermediate resistance. The protocol: Evaluating the ability of E. coli to generate resistance to lead inhibitors. […] NEB 5-alpha E. coli bacteria were streaked onto an LB agar plate and grown overnight at 37° C. […] The overnight cultures were then sub-cultured (10× dilution) into fresh media solutions and grown at 37° C. to mid-log phase, then diluted into fresh media to achieve two separate cultures with final OD600 readings of 0.01. […] Test compounds were evaluated in duplicate with concentration ranges during the resistance assay from 100 μM to 48.8 nM, 2-fold dilution series. […] OD600 readings were taken at the 24 h time point to monitor for bacterial growth. A second baseline control plate was prepared analogously, without any bacteria added, to correct for possible compound absorbance and/or precipitation. For inoculations on subsequent days, bacteria from the wells with the highest test compound concentration where the OD600 was >0.2, were sub-cultured in 5 mL of fresh media at 37° C. until mid-log phase growth was reached. Separate cultures were maintained from this point forward for each of the compound replicates—i.e. 6 cultures continually propagated. The bacteria were then diluted into fresh media to OD600 of 0.01 and the bacteria were propagated again as described above.

The test system of data set [6] is Enterococcus faecium strain NCTC 7171 (ATCC #19434). Put plainly: bacterial proliferation assay, E. faecium. The data set is classed as cell-based. Particulars: read-out: Bacterial Proliferation EC50 E. faecium. The protocol: (§2) All compounds were evaluated for inhibiting the proliferation of E. coli and each of the ESKAPE bacteria. Results presented represent the averages of EC50 values obtained from at least four replicates. Evaluating compounds for inhibition of bacterial cell proliferation.
(§3) Growth Media: E. coli were grown with LB medium and all ESKAPE bacteria were grown in Brain Heart Infusion (BHI) medium (Becton, Dickinson and Company), with all liquid cultures supplemented with 25 mg/L Ca^2+ and 12.5 mg/L Mg^2+ to mimic physiological free concentrations of these cations. A 10 mg/mL Ca^2+ stock solution was prepared by dissolving 1.84 g of CaCl2.2H2O in 50 mL of deionized water, and a 10 mg/mL Mg^2+ stock solution was prepared by dissolving 4.18 g of MgCl2.6H2O in 50 mL deionized water—filter sterilized using 0.2 μm cellulose-acetate filters. 2.5 mL of the sterile 10 mg/mL Ca^2+ stock and 1.25 mL of the sterile 10 mg/mL Mg^2+ stock solutions were added per 1 L of autoclaved LB or BHI media to obtain 25 mg/L Ca^2+ and 12.5 mg/L Mg^2+ ions, respectively.
(§4) General Assay Protocol: Stock bacterial cultures were streaked onto LB or BHI agar plates and grown overnight at 37° C. Fresh aliquots of cation supplemented media were inoculated with single bacterial colonies and the cultures were grown overnight at 37° C. with shaking (240 rpm). The following morning, cultures were diluted 10-fold into fresh media and grown at 37° C. until bacteria had reached mid-log phase growth (OD600˜0.4-0.6). The cultures were then diluted into fresh media to achieve final OD600 readings of 0.017. Aliquots of these diluted cultures (30 μL) were added to clear, flat-bottom 384-well polystyrene plates that were previously stamped with 0.5 μL of test compounds in 20 μL of media (yielding initial OD600=0.01 bacterial cultures). All compounds were tested in dose-response with concentration ranges during the proliferation assays from 100 μM to 46 nM (3-fold dilution series). A second set of baseline control plates were prepared analogously, but without any bacteria added, to correct for possible compound absorbance and/or precipitation. […] Plates were then read at 600 nm using a Molecular Devices SpectraMax Plus384 microplate reader. […] Results presented represent the averages of EC50 values obtained from at least four replicates.
(§5) Evaluating analogs for inhibiting the growth of E. coli and the ESKAPE bacteria. Analogs were initially tested for antibacterial efficacy against representative strains of antibiotic-sensitive E. coli and the ESKAPE bacteria. To determine compound efficacy, bacterial proliferation assays were carried out in liquid media culture supplemented with physiological concentrations of free calcium and magnesium cations. For these assays, bacterial cultures (OD600=0.01) were exposed to test compounds in 8-point, 3-fold dilution series (100 μM to 46 nM concentration range), in 384-well plates. After addition of compounds to cultures, the plates were sealed with Breathe-Easy gas permeable membranes and allowed to grow to mid-log phase (OD600˜0.4-0.6), whereupon final OD600 readings were taken to assess for bacterial growth and inhibition.

Data set [7] concerns Staphylococcus aureus strain Seattle 1945 (ATCC #25923). Description: bacterial proliferation assay, S. aureus. To be noted: read-out: Bacterial Proliferation EC50 S. aureus. The format is cell-based. The protocol:
as §2, §3, §4, §5

Data set [8] deals with compound 17 resistant E. coli.
In data set [9] the test system is Klebsiella pneumoniae strain NCTC 9633 (ATCC #13883). Particulars: previously found; read-out: EC50 proliferation of K. pneumoniae; cited from earlier work.
Data set [10] concerns the target T1, E. coli GroEL/ES (Escherichia coli, UniProt P0A6F5).
T1 construct: made in house; host or cells: GroEL in NEB 5-alpha E. coli; GroES in E. coli BL21 (DE3)
To be noted: read-out: IC50 GroEL/ES-mediated refolding of denatured rhodanese; previously found; cited from earlier work.

The mark [11] stands for this setting: Staphylococcus aureus, ATCC25923.

T1 sequence (P0A6F5 2-548): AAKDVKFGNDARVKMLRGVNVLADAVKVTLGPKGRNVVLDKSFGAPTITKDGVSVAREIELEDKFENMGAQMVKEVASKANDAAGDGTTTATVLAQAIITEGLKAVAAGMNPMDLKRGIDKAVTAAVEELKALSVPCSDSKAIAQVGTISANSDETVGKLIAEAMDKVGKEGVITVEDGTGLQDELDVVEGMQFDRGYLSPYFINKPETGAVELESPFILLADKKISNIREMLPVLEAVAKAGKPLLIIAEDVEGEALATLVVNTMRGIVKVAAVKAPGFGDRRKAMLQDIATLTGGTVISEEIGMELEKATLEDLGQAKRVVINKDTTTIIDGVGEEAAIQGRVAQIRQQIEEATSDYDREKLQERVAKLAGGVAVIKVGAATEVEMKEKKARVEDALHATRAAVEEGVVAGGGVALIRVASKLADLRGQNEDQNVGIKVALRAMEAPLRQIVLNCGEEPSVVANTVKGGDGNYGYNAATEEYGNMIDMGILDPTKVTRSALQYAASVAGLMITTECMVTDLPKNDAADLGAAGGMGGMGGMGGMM

One may read the CC50 as the concentration at which the toxic effect on the cells reaches its halfway point. Read a high CC50 as better tolerance by the cells. In the case of `O=C(N/N=C/c1ccc([N+](=O)[O-])o1)c1ccc(Cl)s1` [Compound 17, 5-chloro-N′-((5-nitrofuran-2-yl)methylene)thiophene-2-carbohydrazide], the “response of nitrofurantoin-resistant strains to the other inhibitor” value in data set [1] is on record as “still sensitive”. Moreover, in data set [2], the “SI (CC50/EC50) Intestine” value came to 190, the “cytotoxicity to human cells in words” value is on record as “low to no cytotoxicity” and the CC50 turned out to be 85 µM. Moreover, in [3], the “SI (CC50/EC50) Colon” value turned out to be 119 and the CC50 worked out at 53 µM. Further, the “response of nifuroxazide-resistant strains to the other inhibitor” value in data set [4] is “cross-resistant”. Further, in data set [5], the “resistance of the maximally-resistant strain to its inhibitor after passaging without compound” value is on record as “still resistant” and the EC50 was in the range of 20 to 40 µM. The EC50 in data set [6] turned out to be 12 µM. In data set [7] (setting [11]), the EC50 is 3 µM.
Regarding `O=C(N/N=C/c1ccc([N+](=O)[O-])o1)c1ccc(O)cc1` [Nifuroxazide, reference compound], in [8], the “17-resistant strains susceptible to the other inhibitor” value is “susceptible”. Moreover, the “response of nitrofurantoin-resistant strains to the other inhibitor” value in data set [1] was “still sensitive”. The “cytotoxicity to human cells in words” value in [2] is reported as “low to no cytotoxicity”. Also, in data set [2] (CC50 intestine cells over EC50 E. coli proliferation), the “SI (CC50/EC50) Intestine” value worked out at 91. Also, the CC50 in [2] is 79 µM; in [3], 61 µM. In addition, the “SI (CC50/EC50) Colon” value in data set [3] (CC50 colon cells over EC50 E. coli proliferation) amounted to 70. Moreover, the “resistance of the maximally-resistant strain to its inhibitor after passaging without compound” value in data set [5] was “still resistant”. Also, the EC50 in data set [5] is 20 to 40 µM; in data set [6], 8.1 µM; in [7] (setting [11]), 16 µM.
Take `COc1ccc(C(=O)N/N=C/c2ccc(O)c3ncccc23)cc1` [Compound 1, N′-((8-hydroxyquinolin-5-yl)methylene)-4-methoxybenzohydrazide]: the EC50 in [9] was 95 µM; in data set [6], over 100 µM; in data set [7], 87 µM. Moreover, the IC50 in data set [10] was 18 µM.
